How the values were obtained:
Glucocorticoid receptor [1] = target: T1, Glucocorticoid receptor (Homo sapiens, UniProt P04150); format: functional
T1 sequence (P04150 whole entry): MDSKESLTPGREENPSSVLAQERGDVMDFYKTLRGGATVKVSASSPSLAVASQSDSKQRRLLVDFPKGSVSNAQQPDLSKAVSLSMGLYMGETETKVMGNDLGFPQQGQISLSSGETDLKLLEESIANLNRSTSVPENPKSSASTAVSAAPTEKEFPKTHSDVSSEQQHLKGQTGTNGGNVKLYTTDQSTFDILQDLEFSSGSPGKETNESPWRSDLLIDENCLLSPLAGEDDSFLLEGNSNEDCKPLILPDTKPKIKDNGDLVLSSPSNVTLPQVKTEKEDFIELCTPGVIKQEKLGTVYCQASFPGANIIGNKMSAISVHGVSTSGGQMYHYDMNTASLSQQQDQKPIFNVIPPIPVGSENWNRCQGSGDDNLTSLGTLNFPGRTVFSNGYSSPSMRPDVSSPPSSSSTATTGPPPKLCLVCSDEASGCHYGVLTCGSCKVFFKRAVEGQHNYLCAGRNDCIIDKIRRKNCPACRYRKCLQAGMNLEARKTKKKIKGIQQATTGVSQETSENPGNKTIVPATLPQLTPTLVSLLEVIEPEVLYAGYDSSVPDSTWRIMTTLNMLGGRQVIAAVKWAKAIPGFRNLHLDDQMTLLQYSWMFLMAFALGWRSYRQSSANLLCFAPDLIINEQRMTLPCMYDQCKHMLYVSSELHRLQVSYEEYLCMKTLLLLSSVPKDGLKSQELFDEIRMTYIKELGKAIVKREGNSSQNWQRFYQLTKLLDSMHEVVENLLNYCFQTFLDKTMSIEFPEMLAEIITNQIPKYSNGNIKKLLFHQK

B1 bradykinin receptor = target: T2, B1 bradykinin receptor (Homo sapiens, UniProt P46663)
T2 sequence (P46663 whole entry): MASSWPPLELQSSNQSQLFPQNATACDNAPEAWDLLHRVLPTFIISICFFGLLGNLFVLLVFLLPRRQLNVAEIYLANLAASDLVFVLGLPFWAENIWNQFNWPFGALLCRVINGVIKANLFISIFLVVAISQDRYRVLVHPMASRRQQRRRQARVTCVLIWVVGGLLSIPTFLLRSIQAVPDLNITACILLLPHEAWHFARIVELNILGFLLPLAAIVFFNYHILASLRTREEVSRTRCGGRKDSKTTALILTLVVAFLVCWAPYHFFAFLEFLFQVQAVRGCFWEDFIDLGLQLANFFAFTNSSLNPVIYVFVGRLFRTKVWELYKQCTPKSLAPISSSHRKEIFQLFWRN

[2] = target: T3, Neuropeptide Y receptor type 2 (Homo sapiens, UniProt P49146)
T3 sequence (P49146 whole entry): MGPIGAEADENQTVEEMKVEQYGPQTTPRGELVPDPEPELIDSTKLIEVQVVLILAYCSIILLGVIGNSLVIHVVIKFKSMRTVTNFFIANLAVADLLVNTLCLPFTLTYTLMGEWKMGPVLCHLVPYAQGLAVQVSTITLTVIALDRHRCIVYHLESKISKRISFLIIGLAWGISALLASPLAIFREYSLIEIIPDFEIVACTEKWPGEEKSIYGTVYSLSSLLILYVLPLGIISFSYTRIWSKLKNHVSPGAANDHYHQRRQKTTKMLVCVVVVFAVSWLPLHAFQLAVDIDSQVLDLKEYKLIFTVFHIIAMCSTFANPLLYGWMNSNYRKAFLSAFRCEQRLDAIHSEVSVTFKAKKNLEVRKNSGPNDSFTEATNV

Glucocorticoid receptor [3] = target: T1, Glucocorticoid receptor
[4] = target: 5-hydroxytryptamine receptor 2B (Homo sapiens, UniProt P41595)
[5] = target: Beta-3 adrenergic receptor (Homo sapiens, UniProt P13945)
D(1A) dopamine receptor = D(1A) dopamine receptor (Homo sapiens, UniProt P21728)
Adenosine receptor A1 = target: T4, Adenosine receptor A1 (Homo sapiens, UniProt P30542)
T4 sequence (P30542 whole entry): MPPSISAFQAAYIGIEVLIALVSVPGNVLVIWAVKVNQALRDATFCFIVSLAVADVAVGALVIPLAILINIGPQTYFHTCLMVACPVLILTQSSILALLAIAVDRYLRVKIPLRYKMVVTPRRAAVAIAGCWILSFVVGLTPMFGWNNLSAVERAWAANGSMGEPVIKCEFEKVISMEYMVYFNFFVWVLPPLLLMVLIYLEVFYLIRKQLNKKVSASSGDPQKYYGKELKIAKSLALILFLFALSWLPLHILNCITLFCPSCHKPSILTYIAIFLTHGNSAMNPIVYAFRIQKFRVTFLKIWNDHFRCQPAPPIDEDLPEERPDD

[6] = target: T5, Peroxisome proliferator-activated receptor gamma (Homo sapiens, UniProt P37231); format: functional
T5 sequence (P37231 whole entry): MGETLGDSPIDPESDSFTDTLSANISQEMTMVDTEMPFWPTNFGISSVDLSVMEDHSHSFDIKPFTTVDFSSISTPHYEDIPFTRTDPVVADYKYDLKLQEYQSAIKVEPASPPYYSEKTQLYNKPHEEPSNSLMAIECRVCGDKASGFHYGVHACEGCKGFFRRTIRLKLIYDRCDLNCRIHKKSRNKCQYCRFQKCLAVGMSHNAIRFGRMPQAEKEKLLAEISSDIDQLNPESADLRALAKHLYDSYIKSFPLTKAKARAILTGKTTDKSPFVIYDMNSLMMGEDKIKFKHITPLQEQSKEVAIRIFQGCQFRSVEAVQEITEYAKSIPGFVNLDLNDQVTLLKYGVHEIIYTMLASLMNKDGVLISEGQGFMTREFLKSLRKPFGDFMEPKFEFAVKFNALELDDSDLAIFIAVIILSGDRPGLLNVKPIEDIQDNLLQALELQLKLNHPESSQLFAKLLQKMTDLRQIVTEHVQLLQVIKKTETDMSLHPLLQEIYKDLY

[7] = target: T5, Peroxisome proliferator-activated receptor gamma; format: functional; remark: listed apart in the source
[8] = target: Gamma-aminobutyric acid receptor subunit alpha-1/alpha-2/beta-2/gamma-2 (Homo sapiens, UniProt P14867+P18507+P47869+P47870); format: functional, cell-based
Mu-type opioid receptor = Mu-type opioid receptor (Homo sapiens, UniProt P35372); assay: biochemical; format: functional
Substance-P receptor = Substance-P receptor (Homo sapiens, UniProt P25103)
[9] = target: 5-hydroxytryptamine receptor 6 (Homo sapiens, UniProt P50406)
Also: assay procedure not described here.

Chain of Gamma-aminobutyric acid receptor subunit alpha-1/alpha-2/beta-2/gamma-2 (P14867 whole entry): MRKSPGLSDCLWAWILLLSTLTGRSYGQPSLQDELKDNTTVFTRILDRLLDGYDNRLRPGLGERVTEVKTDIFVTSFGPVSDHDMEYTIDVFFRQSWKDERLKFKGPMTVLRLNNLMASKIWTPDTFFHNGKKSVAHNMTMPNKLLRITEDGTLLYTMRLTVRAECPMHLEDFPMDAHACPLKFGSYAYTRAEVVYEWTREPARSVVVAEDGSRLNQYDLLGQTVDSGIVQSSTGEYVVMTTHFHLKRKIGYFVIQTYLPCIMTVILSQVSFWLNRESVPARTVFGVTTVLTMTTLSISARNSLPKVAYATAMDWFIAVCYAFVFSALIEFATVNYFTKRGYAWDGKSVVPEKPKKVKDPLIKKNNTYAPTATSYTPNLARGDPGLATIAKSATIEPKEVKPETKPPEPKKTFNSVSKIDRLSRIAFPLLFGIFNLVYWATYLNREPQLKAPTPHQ
Chain of Gamma-aminobutyric acid receptor subunit alpha-1/alpha-2/beta-2/gamma-2 (P47870 whole entry): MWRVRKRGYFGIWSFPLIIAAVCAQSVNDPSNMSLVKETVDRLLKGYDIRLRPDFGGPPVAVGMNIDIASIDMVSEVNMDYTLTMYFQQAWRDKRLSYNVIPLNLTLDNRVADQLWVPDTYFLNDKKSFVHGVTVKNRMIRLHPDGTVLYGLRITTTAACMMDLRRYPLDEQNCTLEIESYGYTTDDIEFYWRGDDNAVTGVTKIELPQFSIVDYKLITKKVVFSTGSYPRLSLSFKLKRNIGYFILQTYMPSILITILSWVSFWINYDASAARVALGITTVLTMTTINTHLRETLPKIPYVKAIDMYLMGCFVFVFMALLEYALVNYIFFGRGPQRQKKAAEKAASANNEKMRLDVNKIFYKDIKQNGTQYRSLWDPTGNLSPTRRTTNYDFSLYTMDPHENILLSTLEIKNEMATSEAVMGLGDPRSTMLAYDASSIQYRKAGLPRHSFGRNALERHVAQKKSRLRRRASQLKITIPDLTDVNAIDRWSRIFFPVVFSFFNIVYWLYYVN
Chain of Gamma-aminobutyric acid receptor subunit alpha-1/alpha-2/beta-2/gamma-2 (P18507 whole entry): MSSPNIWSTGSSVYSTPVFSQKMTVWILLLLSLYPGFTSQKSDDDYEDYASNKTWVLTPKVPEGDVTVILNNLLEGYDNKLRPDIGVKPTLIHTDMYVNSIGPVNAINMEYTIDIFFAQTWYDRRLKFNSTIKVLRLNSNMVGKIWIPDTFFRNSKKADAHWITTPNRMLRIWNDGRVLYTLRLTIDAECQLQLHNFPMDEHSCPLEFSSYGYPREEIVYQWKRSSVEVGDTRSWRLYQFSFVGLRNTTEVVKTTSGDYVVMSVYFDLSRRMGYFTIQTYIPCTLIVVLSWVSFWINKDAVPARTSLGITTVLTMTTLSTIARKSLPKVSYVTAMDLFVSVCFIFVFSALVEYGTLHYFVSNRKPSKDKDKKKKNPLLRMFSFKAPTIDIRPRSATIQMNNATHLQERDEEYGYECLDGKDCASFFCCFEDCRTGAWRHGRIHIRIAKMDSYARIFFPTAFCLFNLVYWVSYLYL
Chain of Gamma-aminobutyric acid receptor subunit alpha-1/alpha-2/beta-2/gamma-2 (P47869 whole entry): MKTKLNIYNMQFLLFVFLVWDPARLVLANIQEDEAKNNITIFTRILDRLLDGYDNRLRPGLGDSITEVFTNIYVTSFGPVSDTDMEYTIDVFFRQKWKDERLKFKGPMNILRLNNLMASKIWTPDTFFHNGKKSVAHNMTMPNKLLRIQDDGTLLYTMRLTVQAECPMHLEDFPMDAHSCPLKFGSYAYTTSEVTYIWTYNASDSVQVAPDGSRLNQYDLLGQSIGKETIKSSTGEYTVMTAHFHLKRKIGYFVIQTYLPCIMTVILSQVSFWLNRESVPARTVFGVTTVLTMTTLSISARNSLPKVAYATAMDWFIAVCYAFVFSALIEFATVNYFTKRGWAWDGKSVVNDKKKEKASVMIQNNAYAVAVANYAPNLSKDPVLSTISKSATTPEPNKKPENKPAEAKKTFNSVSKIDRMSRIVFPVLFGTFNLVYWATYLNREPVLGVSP
Chain of Mu-type opioid receptor (P35372 whole entry): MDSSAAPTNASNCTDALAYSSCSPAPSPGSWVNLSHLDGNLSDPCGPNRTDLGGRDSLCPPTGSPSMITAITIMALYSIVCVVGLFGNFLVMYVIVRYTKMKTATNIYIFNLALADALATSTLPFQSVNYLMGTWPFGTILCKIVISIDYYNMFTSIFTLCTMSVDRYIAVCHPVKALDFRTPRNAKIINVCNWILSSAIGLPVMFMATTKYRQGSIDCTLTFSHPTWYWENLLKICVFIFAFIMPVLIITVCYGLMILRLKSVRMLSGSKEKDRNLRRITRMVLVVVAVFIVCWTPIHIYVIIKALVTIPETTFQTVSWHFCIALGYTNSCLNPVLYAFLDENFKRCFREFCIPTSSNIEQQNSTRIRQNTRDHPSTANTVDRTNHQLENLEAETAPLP
Chain of 5-hydroxytryptamine receptor 2B (P41595 whole entry): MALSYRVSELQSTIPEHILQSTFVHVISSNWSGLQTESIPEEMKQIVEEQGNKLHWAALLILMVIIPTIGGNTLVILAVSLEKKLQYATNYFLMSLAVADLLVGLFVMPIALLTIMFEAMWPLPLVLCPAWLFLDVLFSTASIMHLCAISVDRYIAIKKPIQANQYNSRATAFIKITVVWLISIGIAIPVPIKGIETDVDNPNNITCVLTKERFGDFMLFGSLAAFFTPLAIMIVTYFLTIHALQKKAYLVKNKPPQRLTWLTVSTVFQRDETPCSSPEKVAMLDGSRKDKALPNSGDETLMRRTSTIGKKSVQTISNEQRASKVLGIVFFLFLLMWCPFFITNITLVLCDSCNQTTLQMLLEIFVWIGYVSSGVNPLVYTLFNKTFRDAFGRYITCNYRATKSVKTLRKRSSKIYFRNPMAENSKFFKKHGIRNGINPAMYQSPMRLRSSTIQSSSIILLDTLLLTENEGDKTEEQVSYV
Chain of Substance-P receptor (P25103 whole entry): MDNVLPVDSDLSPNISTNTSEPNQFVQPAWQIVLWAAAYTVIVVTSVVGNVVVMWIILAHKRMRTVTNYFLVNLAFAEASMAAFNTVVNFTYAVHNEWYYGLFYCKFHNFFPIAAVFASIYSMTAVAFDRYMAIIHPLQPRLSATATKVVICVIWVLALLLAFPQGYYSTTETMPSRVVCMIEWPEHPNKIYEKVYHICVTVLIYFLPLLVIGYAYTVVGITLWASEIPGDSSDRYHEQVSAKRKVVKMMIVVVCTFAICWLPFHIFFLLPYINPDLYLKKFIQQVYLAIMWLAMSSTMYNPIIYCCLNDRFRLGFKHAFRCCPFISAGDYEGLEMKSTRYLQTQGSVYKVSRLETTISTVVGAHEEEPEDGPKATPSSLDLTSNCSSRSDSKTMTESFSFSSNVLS
Chain of Beta-3 adrenergic receptor (P13945 whole entry): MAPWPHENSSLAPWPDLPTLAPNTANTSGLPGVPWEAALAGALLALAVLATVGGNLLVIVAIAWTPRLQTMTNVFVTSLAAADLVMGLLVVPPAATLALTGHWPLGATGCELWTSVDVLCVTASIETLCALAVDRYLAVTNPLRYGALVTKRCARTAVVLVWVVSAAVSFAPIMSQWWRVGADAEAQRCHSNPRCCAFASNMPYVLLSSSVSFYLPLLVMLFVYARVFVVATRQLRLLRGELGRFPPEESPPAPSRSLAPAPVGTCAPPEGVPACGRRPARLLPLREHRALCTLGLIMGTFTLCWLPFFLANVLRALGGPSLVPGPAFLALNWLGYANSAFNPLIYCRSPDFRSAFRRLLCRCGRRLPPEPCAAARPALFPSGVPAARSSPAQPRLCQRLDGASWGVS
Chain of 5-hydroxytryptamine receptor 6 (P50406 whole entry): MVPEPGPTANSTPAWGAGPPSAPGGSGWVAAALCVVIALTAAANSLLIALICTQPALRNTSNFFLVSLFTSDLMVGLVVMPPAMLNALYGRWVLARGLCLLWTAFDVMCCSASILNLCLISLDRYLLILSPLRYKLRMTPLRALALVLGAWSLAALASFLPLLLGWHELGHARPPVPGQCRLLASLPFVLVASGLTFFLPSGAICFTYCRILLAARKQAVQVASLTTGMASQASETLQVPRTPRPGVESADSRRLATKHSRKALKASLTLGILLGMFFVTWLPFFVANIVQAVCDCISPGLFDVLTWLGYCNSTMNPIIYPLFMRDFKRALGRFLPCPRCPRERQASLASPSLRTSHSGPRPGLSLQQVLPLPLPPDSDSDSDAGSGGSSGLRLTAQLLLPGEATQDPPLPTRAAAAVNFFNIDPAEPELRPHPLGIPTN
Chain of D(1A) dopamine receptor (P21728 whole entry): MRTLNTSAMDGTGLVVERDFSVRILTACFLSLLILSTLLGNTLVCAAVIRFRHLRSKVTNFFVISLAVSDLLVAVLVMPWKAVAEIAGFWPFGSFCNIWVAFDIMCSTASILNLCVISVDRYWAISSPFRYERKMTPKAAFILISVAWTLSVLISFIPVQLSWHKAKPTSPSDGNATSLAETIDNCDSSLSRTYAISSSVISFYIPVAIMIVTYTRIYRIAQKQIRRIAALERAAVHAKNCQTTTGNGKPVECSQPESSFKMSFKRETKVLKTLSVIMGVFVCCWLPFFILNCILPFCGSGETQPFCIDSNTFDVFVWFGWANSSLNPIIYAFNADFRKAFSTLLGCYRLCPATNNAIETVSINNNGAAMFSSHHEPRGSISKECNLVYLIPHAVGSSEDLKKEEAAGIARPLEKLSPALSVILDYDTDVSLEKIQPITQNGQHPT

Row | Compound | AC50 (Glucocorticoid receptor [1]) [µM] | AC50 (B1 bradykinin receptor) [µM] | AC50 [2] [µM] | AC50 (Glucocorticoid receptor [3]) [µM] | AC50 [4] [µM] | AC50 (D(1A) dopamine receptor) [µM] | AC50 (Adenosine receptor A1) [µM] | AC50 [6] [µM] | AC50 [7] [µM] | AC50 [8] [µM] | AC50 (Mu-type opioid receptor) [µM] | AC50 [9] [µM] | other results
1 | COc1ccccc1Oc1c(NS(=O)(=O)c2ccc(C(C)(C)C)cc2)nc(-c2ncccn2)nc1OCCO [BOSENTAN] | > 30 | > 30 | > 30 | > 30 | > 10 | – | – | – | – | – | – | – | AC50 [5]: > 30 µM
2 | FC(F)(F)c1ccc(CNc2ccc(Cc3c[nH]c4ncc(Cl)cc34)cn2)cn1 [PEXIDARTINIB] | – | – | – | – | – | 5.53 | 27.7 | – | – | – | – | – | –
3 | CN1C[C@H](C(=O)N[C@]2(C)O[C@@]3(O)[C@@H]4CCCN4C(=O)[C@H](Cc4ccccc4)N3C2=O)C=C2c3cccc4[nH]cc(c34)C[C@H]21 [ERGOTAMINE] | > 30 | – | – | – | – | – | – | > 30 | > 30 | – | – | – | –
4 | CN(CC1(C)CCCO1)S(=O)(=O)c1ccc(Cl)c(S(N)(=O)=O)c1 (configuration not stated) [MEFRUSIDE] | – | – | – | – | – | > 30 | > 30 | – | – | > 30 | > 30 | – | –
5 | C#C[C@]1(O)CC[C@H]2[C@@H]3CCC4=CC(=O)CC[C@@H]4[C@H]3C(=C)C[C@@]21CC [ETONOGESTREL] | – | – | – | – | – | > 30 | > 30 | – | – | > 30 | > 30 | – | –
6 | CCN1CCN(Cc2ccc(Nc3ncc(F)c(-c4cc(F)c5nc(C)n(C(C)C)c5c4)n3)nc2)CC1 [ABEMACICLIB] | > 30 | – | – | – | – | – | – | > 30 | > 30 | > 30 | – | – | –
7 | Cc1onc(-c2ccccc2)c1-c1ccc(S(N)(=O)=O)cc1 [VALDECOXIB] | – | > 30 | > 30 | > 30 | > 10 | – | – | > 30 | > 30 | – | – | > 10 | AC50 (Substance-P receptor): > 10 µM; AC50 [5]: > 30 µM
8 | OC[C@@H](O)[C@@H](O)[C@H](O)[C@@H](O)CO [SORBITOL] | – | – | – | – | – | > 30 | > 30 | – | – | – | – | – | –
9 | CCN(CC)CCNC(=O)c1c(C)[nH]c(/C=C2\C(=O)Nc3ccc(F)cc32)c1C [SUNITINIB] | > 10 | – | – | > 30 | 0.158 | – | – | – | – | – | > 30 | 2.39 | –
10 | CO[C@H]1/C=C/O[C@@]2(C)Oc3c(C)c(O)c4c(O)c(c(/C=N/N5CCN(C)CC5)c(O)c4c3C2=O)NC(=O)/C(C)=C\C=C\[C@H](C)[C@H](O)[C@@H](C)[C@@H](O)[C@@H](C)[C@H](OC(C)=O)[C@@H]1C [RIFAMPIN] | – | 14.2 | 21.6 | – | > 10 | – | – | – | – | – | > 30 | > 10 | AC50 [5]: 32.6 µM
11 | CCCN(CCC)C(=O)Cc1c(-c2ccc(Cl)cc2)nc2ccc(Cl)cn12 [ALPIDEM] | – | > 10 | > 10 | – | > 10 | – | 14.4 | – | – | > 10 | > 30 | > 10 | –
12 | COc1cc2nccc(Oc3ccc(NC(=O)C4(C(=O)Nc5ccc(F)cc5)CC4)cc3)c2cc1OC [CABOZANTINIB] | > 30 | – | – | – | – | – | – | > 30 | > 30 | > 30 | – | – | –
13 | CCCC(CCC)C(=O)O [VALPROIC ACID] | – | > 30 | > 30 | > 30 | > 10 | – | > 30 | – | – | – | – | > 10 | AC50 (Substance-P receptor): > 10 µM; AC50 [5]: > 30 µM
14 | CC[C@@]1(O)C(=O)OCc2c1cc1n(c2=O)Cc2cc3c([N+](=O)[O-])cccc3nc2-1 [RUBITECAN] | – | – | – | – | – | > 30 | > 30 | – | – | – | – | – | –
15 | CC(C)(O)CNc1nc(Nc2ccnc(C(F)(F)F)c2)nc(-c2cccc(C(F)(F)F)n2)n1 [ENASIDENIB] | – | – | – | – | – | > 30 | 1.29 | – | – | – | – | – | –
16 | CN1C(C(=O)Nc2ccccn2)=C(O)c2ccccc2S1(=O)=O [PIROXICAM] | – | – | – | > 10 | – | > 30 | > 30 | – | – | – | > 30 | – | –
17 | CC(C(=O)O)c1ccc2c(c1)[nH]c1ccc(Cl)cc12 (configuration not stated) [CARPROFEN] | > 30 | – | – | > 30 | – | – | – | – | – | – | – | – | –
18 | CN(C)CCc1c[nH]c2ccc(Cn3cncn3)cc12 [RIZATRIPTAN] | – | > 30 | > 30 | – | 12 | – | – | – | – | > 30 | > 30 | > 10 | AC50 (Substance-P receptor): > 10 µM; AC50 [5]: > 30 µM
19 | O=C(O)CO [GLYCOLIC ACID] | – | – | – | – | – | > 30 | > 30 | – | – | – | – | – | –
20 | COc1ccccc1OCCNCC(O)COc1cccc2[nH]c3ccccc3c12 (configuration not stated) [CARVEDILOL] | – | > 30 | > 30 | > 30 | 0.0101 | – | – | > 30 | 28 | – | 5.2 | 1.25 | AC50 (Substance-P receptor): 0.481 µM
21 | C[C@@H](Oc1cc(-c2cnn(C3CCNCC3)c2)cnc1N)c1c(Cl)ccc(F)c1Cl [CRIZOTINIB] | > 30 | – | > 30 | – | 0.316 | – | – | > 30 | > 30 | 17 | – | – | AC50 [5]: 14.2 µM
22 | CC(C)Cc1ccc(C(C)C(=O)O)cc1 (configuration not stated) [IBUPROFEN] | > 30 | > 30 | > 30 | > 30 | > 10 | – | – | – | – | – | – | > 10 | AC50 (Substance-P receptor): > 10 µM; AC50 [5]: 7.12 µM
23 | OC[C@H]1O[C@@](CO)(O[C@H]2O[C@H](CO)[C@@H](O)[C@H](O)[C@H]2O)[C@@H](O)[C@@H]1O [SUCROSE] | – | – | – | – | – | > 30 | > 30 | > 30 | > 30 | > 30 | > 30 | – | –
24 | CC(C)c1nc(N(C)S(C)(=O)=O)nc(-c2ccc(F)cc2)c1/C=C/[C@@H](O)C[C@@H](O)CC(=O)O [ROSUVASTATIN] | > 30 | – | – | > 30 | – | – | – | > 30 | > 30 | > 30 | > 30 | – | –
25 | CCOC(=O)c1c(C)cc2c(CO)n[nH]c(=O)c2c1C [OXAGRELATE] | – | – | – | – | – | > 30 | 25.9 | – | – | – | – | – | –

From ChEMBL document CHEMBL5291721, “A preclinical secondary pharmacology resource illuminates target-adverse drug reaction associations of marketed drugs” (Nat Commun, 2023)
